Results: ChEMBL document CHEMBL6078706, “Deciphering the Comprehensive Structure-Activity Relationship of Sunshinamide for Breast Cancer Therapy through Dual Modulation of Apoptotic and Ferroptotic Pathways via TrxR1 and Gpx4 Inhibition” (J Med Chem, 2024)
Activity calls are given as the source filed them. The calls are words filed in the database; no cut-off is given here.

What was measured:
[1] = biological target: T1, Phospholipid hydroperoxide glutathione peroxidase GPX4 (Homo sapiens) (UniProt P36969); assay: Inhibition of GPX4 in human MDA-MB-468 cells incubated for 12 hrs in presence of NADPH; assay type: cell-based; conditions: dose 25.0 nM
T1 sequence (whole entry): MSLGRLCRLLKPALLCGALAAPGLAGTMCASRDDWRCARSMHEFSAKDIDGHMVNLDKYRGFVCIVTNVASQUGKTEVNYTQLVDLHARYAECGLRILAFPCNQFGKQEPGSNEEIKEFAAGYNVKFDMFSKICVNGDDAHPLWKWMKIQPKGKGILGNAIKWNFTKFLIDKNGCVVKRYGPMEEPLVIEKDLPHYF

[2] = biological target: T2, Thioredoxin reductase 1, cytoplasmic (Homo sapiens) (UniProt Q16881); assay: Inhibition of recombinant TRXR1 (unknown origin) assessed as reduction in DTNB incubated for 2 hrs in presence of NADPH by microplate reader analysis
T2 sequence (whole entry): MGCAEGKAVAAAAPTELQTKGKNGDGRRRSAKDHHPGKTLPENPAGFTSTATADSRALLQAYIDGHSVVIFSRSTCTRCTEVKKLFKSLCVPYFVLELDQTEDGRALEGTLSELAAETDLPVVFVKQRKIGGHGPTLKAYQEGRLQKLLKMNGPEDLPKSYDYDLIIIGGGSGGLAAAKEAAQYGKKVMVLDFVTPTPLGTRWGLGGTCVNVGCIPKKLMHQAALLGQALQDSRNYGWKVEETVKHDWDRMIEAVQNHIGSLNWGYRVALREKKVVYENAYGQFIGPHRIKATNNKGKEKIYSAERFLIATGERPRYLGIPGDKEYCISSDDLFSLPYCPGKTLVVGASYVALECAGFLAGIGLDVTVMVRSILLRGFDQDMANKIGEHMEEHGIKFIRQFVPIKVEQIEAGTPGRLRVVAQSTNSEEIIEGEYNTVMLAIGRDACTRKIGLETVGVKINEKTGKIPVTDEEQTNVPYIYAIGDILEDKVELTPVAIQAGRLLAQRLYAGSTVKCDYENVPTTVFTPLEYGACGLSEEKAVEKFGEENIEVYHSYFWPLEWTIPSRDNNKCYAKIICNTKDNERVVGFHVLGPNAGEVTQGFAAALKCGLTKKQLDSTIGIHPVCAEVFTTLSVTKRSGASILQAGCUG

MDA-MB-468 [3] = assay: Induction of ferroptosis in human MDA-MB-468 cells assessed as decrease in lipid peroxidation level at 25 nM incubated for 6 hrs in presence of ferrostatin-1 by C11-BODIPY staining based flow cytometry analysis; assay type: functional, cell-based
MDA-MB-468 [4] = assay: Induction of ROS production in human MDA-MB-468 cells expressing TrxR1 assessed as reduction in ROS level at 25 nM incubated for 6 hrs by DCFH-DA staining based flow cytometry analysis; assay type: functional, cell-based
MDA-MB-468 [5] = assay: Induction of ferroptosis in human MDA-MB-468 cells assessed as lipid peroxidation level by measuring fluorescence intensity at 25 nM incubated for 6 hrs in presence of ferrostatin-1 by C11-BODIPY staining based microscopic analysis; assay type: functional, cell-based
MDA-MB-468 [6] = assay: Antiproliferative activity against human MDA-MB-468 cells expressing TrxR1 assessed as reduction in cell viability at 50 nM incubated for 48 hrs by MTT assay; assay type: functional, cell-based
MDA-MB-468 [7] = assay: Induction of ferroptosis in human MDA-MB-468 cells assessed as decrease in 4-HNE level at 25 nM in presence of ferrostatin-1; assay type: functional, cell-based
MDA-MB-468 [8] = assay: Induction of ferroptosis in human MDA-MB-468 cells assessed as decrease in MDA level at 25 nM in presence of ferrostatin-1; assay type: functional, cell-based
HEK293 = assay: Antiproliferative activity against human HEK293 cells assessed as cell viability upto 50 nM incubated for 48 hrs by MTT assay; assay type: toxicity, cell-based; conditions: hek293, 48 h, 0.05 µM
MDA-MB-468 [9] = assay: Effect on TRXR1 expression in human MDA-MB-468 cells at 25 nM incubated for 24 hrs by Western blot analysis; assay type: functional, cell-based
MDA-MB-468 [10] = assay: Induction of ferroptosis in human MDA-MB-468 cells assessed as increase in cell viability at 25 nM incubated for 48 hrs in presence of Z-VAD; assay type: functional, cell-based
MDA-MB-468 [11] = assay: Induction of ferroptosis in human MDA-MB-468 cells assessed as increase in cell viability at 25 nM incubated for 48 hrs in presence of ferrostatin-1; assay type: functional, cell-based
MDA-MB-468 [12] = assay: Induction of endoplasmic reticulum (ER) stress-mediated apoptosis in human MDA-MB-468 cells assessed as reduction in CHOP expression at 25 nM measured for 12 hrs in presence of 4-PBA by Western blot analysis; assay type: functional, cell-based
MDA-MB-468 [13] = assay: Induction of apoptosis in CHOP knockdown human MDA-MB-468 cells assessed as increase in caspase 3/7 activation at 25 nM measured at 12 hrs by Western blot analysis; assay type: functional, cell-based
MDA-MB-468 [14] = assay: Induction of endoplasmic reticulum (ER) stress-mediated apoptosis in human MDA-MB-468 cells assessed as increase in phospho-eIF2alpha level at 25 nM measured after 12 hrs by Western blot analysis; assay type: functional, cell-based
MDA-MB-468 [15] = assay: Induction of ferroptosis in human MDA-MB-468 cells assessed as reduction in intracellular GSH level at 25 nM incubated for 12 hrs; assay type: functional, cell-based
MDA-MB-468 [16] = assay: Induction of endoplasmic reticulum (ER) stress-mediated apoptosis in human MDA-MB-468 cells assessed as increase in ATF4 expression at 25 nM measured after 12 hrs by Western blot analysis; assay type: functional, cell-based
MDA-MB-468 [17] = assay: Induction of endoplasmic reticulum (ER) stress-mediated apoptosis in human MDA-MB-468 cells assessed as reduction in ATF4 expression at 25 nM measured for 12 hrs in presence of 4-PBA by Western blot analysis; assay type: functional, cell-based
MDA-MB-468 [18] = assay: Induction of ferroptosis in human MDA-MB-468 cells assessed as increase in 4-HNE level at 25 nM; assay type: functional, cell-based
MDA-MB-468 [19] = assay: Induction of apoptosis in human MDA-MB-468 cells assessed as increase in caspase 3/7 activation at 25 nM measured at 12 hrs in presence of 4-PBA by Western blot analysis; assay type: functional, cell-based
MDA-MB-468 [20] = assay: Induction of endoplasmic reticulum (ER) stress-mediated apoptosis in human MDA-MB-468 cells assessed as increase in CHOP expression at 25 nM measured after 12 hrs by Western blot analysis; assay type: functional, cell-based
[21] = biological target: T2, Thioredoxin reductase 1, cytoplasmic (Homo sapiens); assay: Inhibition of TRXR1 in human MDA-MB-468 cells incubated for 24 hrs by; assay type: cell-based
MDA-MB-468 [22] = assay: Antiproliferative activity against human MDA-MB-468 cells expressing GPX4 assessed as cell viability at 25 nM incubated for 48 hrs by MTT assay; assay type: functional, cell-based
MDA-MB-468 [23] = assay: Induction of mitochondrial ROS generation in human MDA-MB-468 cells at 25 nM incubated for 6 hrs by MitoSOX dye staining based flow cytometry analysis; assay type: functional, cell-based
MDA-MB-468 [24] = assay: Induction of apoptosis in human MDA-MB-468 cells transfected with ATF4 SiRNA assessed as increase in caspase 3/7 activation at 25 nM measured at 12 hrs by Western blot analysis; assay type: functional, cell-based
MDA-MB-468 [25] = assay: Induction of endoplasmic reticulum (ER) stress-mediated apoptosis in human MDA-MB-468 cells assessed as increase in p-PERK level at 25 nM measured after 12 hrs by Western blot analysis; assay type: functional, cell-based

| inhibition [1] | inhibition [2] | Structure (SMILES) | Activity (MDA-MB-468 [3]) | Activity (MDA-MB-468 [4]) | Activity (MDA-MB-468 [5]) | Activity (MDA-MB-468 [6]) | Activity (MDA-MB-468 [7]) | Activity (MDA-MB-468 [8]) | Activity (HEK293) | Activity (MDA-MB-468 [9]) | Activity (MDA-MB-468 [10]) | Activity (MDA-MB-468 [11]) | Activity (MDA-MB-468 [12]) | Activity (MDA-MB-468 [13]) | Activity (MDA-MB-468 [14]) | Activity (MDA-MB-468 [15]) | Activity (MDA-MB-468 [16]) | Activity (MDA-MB-468 [17]) | Activity (MDA-MB-468 [18]) | Activity (MDA-MB-468 [19]) | other results |
| --- | --- | --- | --- | --- | --- | --- | --- | --- | --- | --- | --- | --- | --- | --- | --- | --- | --- | --- | --- | --- | --- |
| Dose-dependent-effect | Active | CCCCCCC[C@@H]1CC(=O)N[C@H](Cc2ccccc2)C(=O)N[C@H]2CSSC[C@H](NC2=O)C(=O)O1 | Active | Active | Active | Active | Active | Active | Non-toxic | inactive | inactive | inactive | Active | Active | Active | inactive | Active | Active | inactive | Active | Activity (MDA-MB-468 [20]): Active; inhibition [21]: Active; Activity (MDA-MB-468 [22]): inactive; Activity (MDA-MB-468 [23]): Active; Activity (MDA-MB-468 [24]): Active; Activity (MDA-MB-468 [25]): Active |
| Dose-dependent-effect | inactive | CCCCCCC[C@@H](O)CC(=O)N[C@H](Cc1ccccc1)C(=O)N[C@H]1CSSC[C@@H](C(=O)O)NC1=O | Active | Active | Active | Active | Active | Active | Non-toxic | inactive | inactive | inactive | inactive | Active | inactive | inactive | inactive | inactive | inactive | Active | Activity (MDA-MB-468 [20]): inactive; inhibition [21]: Active; Activity (MDA-MB-468 [22]): inactive; Activity (MDA-MB-468 [23]): inactive; Activity (MDA-MB-468 [24]): Active; Activity (MDA-MB-468 [25]): inactive |
| Dose-dependent-effect | inactive | CCCCCCC[C@@H]1CC(=O)N[C@H](Cc2ccccc2)C(=O)N[C@@H](CSC)C(=O)N[C@@H](CSC)C(=O)O1 | Active | Active | Active | Active | Active | Active | Non-toxic | inactive | inactive | inactive | inactive | Active | inactive | inactive | inactive | inactive | inactive | Active | Activity (MDA-MB-468 [20]): inactive; inhibition [21]: Active; Activity (MDA-MB-468 [22]): inactive; Activity (MDA-MB-468 [23]): inactive; Activity (MDA-MB-468 [24]): Active; Activity (MDA-MB-468 [25]): inactive |
